The target of the test is FGFR1 kinase (FGFR1 kinase enzyme system, Promega V9321) (Homo sapiens, UniProt P11362). The experiment in a line: ADP-Glo luminescence kinase assay. The test is classed as biochemical. (ADP-Glo turns the ADP formed in a reaction into a luminescent signal.)

Molecules are shown by their SMILES.

Chain of FGFR1 kinase (FGFR1 kinase enzyme system, Promega V9321) (P11362 398-822 limits assumed): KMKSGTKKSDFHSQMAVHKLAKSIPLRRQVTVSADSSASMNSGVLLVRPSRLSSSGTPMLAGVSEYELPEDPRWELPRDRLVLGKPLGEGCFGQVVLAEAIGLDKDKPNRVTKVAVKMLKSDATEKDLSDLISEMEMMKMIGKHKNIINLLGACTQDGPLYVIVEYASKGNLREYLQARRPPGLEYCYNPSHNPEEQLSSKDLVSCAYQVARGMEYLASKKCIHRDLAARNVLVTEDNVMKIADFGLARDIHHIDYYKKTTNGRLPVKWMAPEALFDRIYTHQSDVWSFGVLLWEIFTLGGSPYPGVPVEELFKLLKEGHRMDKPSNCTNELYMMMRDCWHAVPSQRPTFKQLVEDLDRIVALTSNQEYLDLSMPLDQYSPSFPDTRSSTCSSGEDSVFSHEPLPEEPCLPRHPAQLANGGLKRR

By IC50 is commonly meant the concentration that gives 50% inhibition. Low values mean greater potency in that assay, high ones weaker potency in that assay. `CCN(CC)CCCC(C)Nc1c2ccc(Cl)cc2nc2ccc(OC)cc12` (stereo not shown) [Quinacrine]: half-maximal inhibition (IC50) required 1050 nM.

For the origin of these results see doi:10.1101/2021.12.02.470934v1 (biorxiv, 2021).
